Results as given in patent EP0422134B1, “5-HT SELECTIVE AGENTS” (ABBOTT LABORATORIES, priority 1988, dated 1990).
Counter-ions that a name gives are not always drawn.

What was measured:
5-HT1 = test: Radioligand binding, tritiated 5-HT, rat frontal cortex homogenate (total 5-HT1); conditions: displacement of tritiated 5-HT
Method: Male Sprague-Dawley rats (150-200 g) were sacrificed and the brains were rapidly removed and placed on ice. The frontal cortext, including the portion immediately above the striatum and part of the parietal cortex were dissected. Tissues from 6-10 rats were pooled and homogenized in at least 40 volumes of tris-HCI buffer (0.05 M, pH 7.4) using a Brinkman Polytron (setting 5 for 20 seconds). This homogenate was centrifuged (48,000 G for 10 minutes), the pellet resuspended, and the process repeated three more times. Between the second and third washes, the tissue homogenate was incubated for 10 minutes at 37°C. The final pellet was resuspended in 100 volumes of TRIS buffer for use in the binding assay.
Radioligand binding affinity for subtypes of the serotonin receptor was determined by the method of Pedigo, Yamamura, and Nelson, op. cit. Tissue homogenate (0.5 mL) from rat frontal cortex, together with various concentrations of tritiated 5-HT and test compounds were added to glass tubes containing modified tris-HCI buffer to obtain, in each case, a final volume of 2 mL and having the following compositions: 5.7 mM ascorbate, 10 micromolar pargyline, 4mM CaCl2, 50 mM TRIS buffer; pH 7.4 at 37°C.
Each mixture was incubated for 15 minutes at 37°C and then vacuum filtered through Whatman GF/B filters followed by three 5 mL washes with cold TRIS buffer. Radioactivity was extracted overnight in 3 mL of scintillation liquid and measured by liquid scintillation spectrometry (50% efficiency).
Binding parameters for saturation and drug displacement studies were calculated by Scatchard analysis and from Hill plots, respectively.

[1] = test system: spontaneously hypertensive (SH) rat; test: Blood pressure in spontaneously hypertensive rats (tail cuff), oral dosing; assay type: in vivo; conditions: % change in blood pressure
Method: In another study, a group of spontaneously hypertensive male rats were trained to be restrained in a wire mesh cylinder in a warming box, at least two training cycles being conducted before testing. The rats were warmed for about one-hour prior to blood pressure measurement, the warming box being maintained at a constant temperature of 36°C. An occluding cuff attached to a programmed sphygmomanometer was placed near the base of the tail of each rat and the pressure of the cuff was increased automatically from 0 to 250 millimeters of mercury at a rate of 10 mm Hg pressure per second. The total time for each cycle of inflation and deflation of the cuff was 50 seconds and the interval between cycles was one minute A photocell, placed distally to the cuff, recorded the pulses due to the forward motion of blood flow with each heart beat. As the pressure in the cuff increased, the pulse disappeared completely at the point where the cuff pressure equalled and exceeded the arterial blood pressure. The pulse reappeared during deflation at approximately the same pressure. Five interference free signals were recorded for each rat. Rats with a blood pressure of 180 mm Hg or more during the control period were used in the study.
Blood pressure and heart rate readings were recorded on a Model VII Grass polygraph at various intervals after administration of the test compound. […] For the in vivo test data, SHR refers to spontaneously hypertensive rats, dosed in milligrams per kilogram (mpk), with the data being expressed in the Table in +% changes at a particular dosage range.

COc1cccc2c1[C@H]1CCN(CCCN3C(=O)CC4(CCCC4)CC3=O)C[C@@H]1C2 (relative stereo) [Example 50, trans-2-(3-(3,3-tetramethylene)glutarimidyl)propyl-5-methoxy-2,3,4,4a,9,9a-hexahydro-1 H-indeno [2,1-c]pyridine hydrochloride] gave an IC50 (5-HT1) of 279 nM.

In the case of COc1cccc2c1[C@H]1CCN(CCCCN3C(=O)CC4(CCCC4)CC3=O)C[C@@H]1C2 (relative stereo) [Example 51, trans-2-(4-(3,3-tetramethylene)glutarimidyl)butyl-5-methoxy-2,3,4,4a,9,9a-hexahydro-1H-indeno [2,1-c] pyridine hydrochloride], the IC50 (5-HT1) is reported as 60 nM and the “In Vivo Data SHR (mpk, p.o. dose)” value ([1]; 30 mg/kg p.o.) is reported as -36% at 30 mg/kg.

COc1cccc2c1[C@H]1CCN(CCCN3C(=O)c4ccccc4S3(=O)=O)C[C@@H]1C2 (relative stereo) [Example 56, trans-2(3-(2-(1,2-benzisothiazolin-3-one-1,1-dioxyde))propyl)-5-methoxy-2,3,4,4a,9,9a-hexahydro-1 H-indeno[2,1-c]pyridine hydrochloride] was tested, and the IC50 (5-HT1) was 22 nM and the “In Vivo Data SHR (mpk, p.o. dose)” value ([1]; 10 mg/kg p.o.) was -18% at 10 mg/kg.

With COc1cccc2c1[C@H]1CCN(CCCCN3C(=O)c4ccccc4S3(=O)=O)C[C@@H]1C2 (relative stereo) [Example 57, trans-2(4-(2-(1,2-benzisothiazolin-3-one-1,1-dioxyde))butyl)-5-methoxy-2,3,4,4a,9,9a-hexahydro-1H-indeno[2,1-c]pyridine hydrochloride] the IC50 (5-HT1) was 26 nM and the “In Vivo Data SHR (mpk, p.o. dose)” value ([1]; 30 mg/kg p.o.) was -17% at 30 mg/kg.

In the case of COc1cccc2c1C1CN(CCCCN3C(=O)CC4(CCCC4)CC3=O)CC1C2 (centres unmarked) [Example 7, 2-(4-(3,3-tetramethylene)glutarimidyl)butyl-4-methoxy-1,2,3,3a,8,8a-hexahydoindeno[1,2-c]pyrrole hydrochloride], the IC50 (5-HT1) is reported as 218 nM, the “In Vivo Data SHR (mpk, p.o. dose)” value ([1]; 10 mg/kg p.o.) is reported as -14% and the “In Vivo Data SHR (mpk, p.o. dose)” value ([1]; 30 mg/kg p.o.) is reported as -28%.

COc1c(Cl)ccc2c1C1CN(CCCCN3C(=O)CC4(CCCC4)CC3=O)CC1C2 (centres unmarked) [Example 8, 2-(4-(3,3-tetramethylene)glutarimidyl)butyl-5-chroro-4-methoxy-1,2,3,3a,8,8a-hexahydroindeno[1,2-c] pyrrole hydrochloride] was tested, and the IC50 (5-HT1) was 714 nM and the “In Vivo Data SHR (mpk, p.o. dose)” value ([1]; 30 mg/kg p.o.) was -37% at 30 mg/kg.

For Br.O=C(NCCN1CC2Cc3cccc(O)c3C2C1)c1ccc(F)cc1 (centres unmarked) [Example 19, 4-Hydroxy-2-(2-(4-fluorobenzamido)ethyl)-1,2,3,3a,8,8a-hexahydroindeno[1,2-c]pyrrole hydrobromide], the IC50 (5-HT1) was 262 nM and the “In Vivo Data SHR (mpk, p.o. dose)” value ([1]; 30 mg/kg p.o.) was -9% at 30 mg/kg.

In the case of O=C1CC2(CCCC2)CC(=O)N1CCCCN1CC2Cc3cccc(O)c3C2C1 (centres unmarked) [Example 20, 2-(4-(3,3-tetramethylene)glutarimidyl)butyl-4-hydroxy-1,2,3,3a,8,8a-hexahydroindeno[1,2-c]pyrrole hydrobromide], the IC50 (5-HT1) is reported as 1840 nM.

In the case of COc1cccc2c1C1CN(CCCCN3C(=O)c4ccccc4S3(=O)=O)CC1C2 (centres unmarked) [Example 21, 4-Methoxy-2-(4-(2-(1,2-benzisothiazolin-3-one1,1-dioxide))butyl)1,2,3,3a,8,8a-hexahydroindeno-[1,2-c]pyrrole hydrochloride], the IC50 (5-HT1) is reported as 438 nM, the “In Vivo Data SHR (mpk, p.o. dose)” value ([1]; 10 mg/kg p.o.) is reported as -16% and the “In Vivo Data SHR (mpk, p.o. dose)” value ([1]; 30 mg/kg p.o.) is reported as -28%.

For O=C1c2ccccc2S(=O)(=O)N1CCCCN1CC2Cc3cccc(O)c3C2C1 (centres unmarked) [Example 22, 4-Hydroxy-2-(4-(2-(1.2-benzisothiazolin-3-one-1,1-dioxide))butyl)-1,2,3,3a,8,8a-hexahydroindeno-[1,2-c]pyrrole hydrochloride], the IC50 (5-HT1) was 1090 nM and the “In Vivo Data SHR (mpk, p.o. dose)” value ([1]; 30 mg/kg p.o.) was -16% at 30 mg/kg.

In the case of COc1cccc2c1C1CN(CCCCN3C(=O)CC(C)(C)CC3=O)CC1C2 (centres unmarked) [Example 23, 2-(4-(3,3-dimethyl)glutarimidyl)butyl-4-methoxy-1,2,3,3a,8,8a-hexahydroindeno-[1,2-c]pyrrole hydrochloride], the IC50 (5-HT1) is reported as 1730 nM and the “In Vivo Data SHR (mpk, p.o. dose)” value ([1]; 30 mg/kg p.o.) is reported as -12% at 30 mg/kg.

In the case of COc1cccc2c1C1CN(CCCCN3C(=O)c4ccccc4C3=O)CC1C2 (centres unmarked) [Example 24, 4-Methoxy-2-(4-(2-phthalimido)butyl)-1,2,3,3a,8,8a-hexahydroindeno[1,2-c]pyrrole hydrochloride], the IC50 (5-HT1) is reported as 404 nM.

In the case of COc1cccc2c1C1CN(CCCN3C(=O)CC4(CCCC4)CC3=O)CC1C2 (centres unmarked) [Example 26, 2-(3-(3,3-tetramethylene)glutarimidyl)propyl-4-methoxy-1,2,3,3a,8,8a-hexahydroindeno[1,2-c]pyrrole hydrochloride], the IC50 (5-HT1) is reported as 3300 nM and the “In Vivo Data SHR (mpk, p.o. dose)” value ([1]; 30 mg/kg p.o.) is reported as -23% at 30 mg/kg.

O=C1CC2(CCCC2)CC(=O)N1CCCN1CC2Cc3cccc(O)c3C2C1 (centres unmarked) [Example 27, 2-(3-(3,3-tetramethylene)glutarimidyl)propyl-4-hydroxy-1,2,3,3a,8,8a-hexahydroindeno[1,2-c]pyrrole hydrobromide] was tested, and the IC50 (5-HT1) was 3320 nM.

For COc1cccc2c1C1CN(CCCCCN3C(=O)CC4(CCCC4)CC3=O)CC1C2 (centres unmarked) [Example 28, 2-(5-(3,3-tetramethylene)glutarimidyl)pentyl-4-methoxy-1,2,3,3a,8,8a-hexahydroindeno[1,2-c]pyrrole hydrochloride], the IC50 (5-HT1) was 722 nM.

With COc1cccc2c1C1CN(C/C=C\CN3C(=O)CC4(CCCC4)CC3=O)CC1C2 (stereo not drawn) [Example 29, 2-(4-(3,3-tetramethylene)glutarimidyl)-cis-but-2-enyl-4-methoxy-1,2,3,3a,8,8a-hexahydroindeno [1,2-c] pyrrole hydrochloride] the IC50 (5-HT1) was 3630 nM and the “In Vivo Data SHR (mpk, p.o. dose)” value ([1]; 30 mg/kg p.o.) was -19% at 30 mg/kg.

COc1cccc2c1C1CN(C/C=C/CN3C(=O)CC4(CCCC4)CC3=O)CC1C2 (stereo not drawn) [Example 30, 2-(4-(3,3-tetramethylene)glutarimidyl)-trans-but-2-enyl-4-methoxy-1,2,3,3a,8,8a-hexahydroindeno [1,2-c]pyrrole hydrochloride] was tested, and the IC50 (5-HT1) was 533 nM and the “In Vivo Data SHR (mpk, p.o. dose)” value ([1]; 30 mg/kg p.o.) was -11% at 30 mg/kg.

With COc1cccc2c1C1CN(C[C@H]3COc4ccccc4O3)CC1C2 (stereo partly drawn) [Example 31, 2S-(1,4-benzodioxanyl-2-methyl)-4-methoxy-1,2,3,3a,8,8a-hexahydroindeno[1,2-c]pyrrole hydrochloride] the IC50 (5-HT1) was 457 nM.

COc1cccc2c1C1CN(C[C@@H]3COc4ccccc4O3)CC1C2 (stereo partly drawn) [Example 32, 2R-(1,4-benzodioxanyl-2-methyl)-4-methoxy-1,2,3,3a,8,8a-hexahydroindeno[1,2-c]pyrrole hydrochloride] gave an IC50 (5-HT1) of 992 nM.

COc1cccc2c1C1CCN(CCCN3C(=O)CC4(CCCC4)CC3=O)CC1C2 (stereo not drawn) [Example 43, cis-2-(3-(3,3-tetramethylene)glutarimidyl)propyl-5-methoxy-2,3,4,4a,9,9a-hexahydro-1H-indeno[2,1-c] pyridine hydrochloride] was tested, and the IC50 (5-HT1) was 3120 nM and the “In Vivo Data SHR (mpk, p.o. dose)” value ([1]; 30 mg/kg p.o.) was -17.5% at 30 mg/kg.

For COc1cccc2c1C1CCN(CCCCN3C(=O)CC4(CCCC4)CC3=O)CC1C2 (centres unmarked) [Example 44, hydrochloride], the IC50 (5-HT1) was 505 nM.

In the case of O=C1CC2(CCCC2)CC(=O)N1CCCCN1CC2Cc3ccc(Cl)c(O)c3C2C1 (centres unmarked) [Example 52, 2-(4-(3,3-Tetramethylene)glutarimidyl)butyl-5-chloro-4-hydroxy-1,2,3,3a,8,8a-hexahydroindeno[1,2-c]-pyrrole hydrobromide], the IC50 (5-HT1) is reported as 1840 nM and the “In Vivo Data SHR (mpk, p.o. dose)” value ([1]; 30 mg/kg p.o.) is reported as -23% at 30 mg/kg.

COc1cccc2c1C1CN(CCCCN3C(=O)C4C5C=CC(C6C=CC65)C4C3=O)CC1C2 (centres unmarked) [Example 54, 4-Methoxy-2-(4-(3a,4,4a,6a,7,7a-hexahydro-4,7-etheno-1H-cyclobut[flisoindol-1,3-dionyl)-butyl)-1,2,3,3a,8,8a-hexahydroindeno-[1,2-c]pyrrole hydrochloride] gave an IC50 (5-HT1) of 283 nM.

In the case of COc1cccc2c1C1CCN(CCNC(=O)c3ccc(F)cc3)CC1C2 (stereo not drawn) [Example 58, trans-2-(2-(4-fluorobenzamido)ethyl)-5-methoxy-2,3,4,4a,9.9a-hexahydro-1H-indeno[2,1-c]pyridine hydrochloride], the IC50 (5-HT1) is reported as 43 nM and the “In Vivo Data SHR (mpk, p.o. dose)” value ([1]; 10 mg/kg p.o.) is reported as -18% at 10 mg/kg.
